Assay results taken from patent publication US9801850B2, “Antibacterial agent” (OSAKA UNIVERSITY, priority 2009, dated 2017).

Key:
Experiment in all cases: Bactericidal effect, number of remaining viable cells
P. aeruginosa PAO1 = type: cell-based, Pseudomonas aeruginosa; conditions: EGCG-C16 50, 100, 200 μg/ml, 0 to 6 hours, FIG. 2(C)
Experimental: (§1) The bactericidal effect of EGCG-C16 against MRSA ATCC43300, E. coli MG1655, and P. aeruginosa PAO1 was measured. Each strain of bacteria was cultured using an MH-broth as a medium.
(§2) The antibacterial agent solution and the bacterial culture solution were mixed together and the resultant mixture was cultured at 37° C. in the same manner as described in the above section (2), except that the final concentration of the EGCG-C16 in the mixture were set to: 6.25 μg/ml or 25 μg/ml for the MRSA; 200 μg/ml for the E. coli; and 50 μg/ml, 100 μg/ml, and 200 μg/ml for the P. aeruginosa. The number of viable cells in the mixture of the antibacterial agent solution and the bacterial culture solution was set to 1×10^5 CFU/ml. Then, after a lapse of a predetermined time from the start of the culture (0 hours, 2 hours, 4 hours, and 6 hours), the culture solution was collected and diluted with physiological saline so as to prepare 10-fold dilution series of solutions. 100 μl of each of the diluted bacterial culture solutions was placed on a petri dish. The diluted bacterial culture solution was hardened by mixing it with 10 ml of a Trypticase-soy Agar (BBL) that was kept at 50° C., and cultured at 37° C. overnight. Then, the number of the formed colonies (CFU/ml) was counted, and the number of remaining viable cells was measured. […]

MRSA ATCC43300 = type: cell-based, Staphylococcus aureus; conditions: EGCG-C16 25 μg/ml, 0 to 6 hours, FIG. 2(A)
Experimental: as §1, §2

E. coli MG1655 = type: cell-based, Escherichia coli; conditions: EGCG-C16 200 μg/ml, 0 to 6 hours, FIG. 2(B)
Experimental: as §1, §2

In the case of EGCG-palmitate [EGCG-C16], the “number of remaining viable cells” value (P. aeruginosa PAO1) was “bacteriostatic action”, the “number of remaining viable cells” value (MRSA ATCC43300) was “not only inhibited the propagation but also reduced the number of viable cells” and the “number of remaining viable cells” value (E. coli MG1655) was “bacteriostatic action”.
